Experimental data published in the supplement of paper PMC8671470.

Assays:
Settings in all cases: 72 h
[1] = tested on: myeloid leukemia patient primary cells Pat.3; experiment: cell viability (% survival relative to DMSO control); higher = less cytotoxic
Method in brief: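 Thawed mononuclear cells from AML or CML patients were purified on Ficoll and cultured for 72 h in RPMI 1640 with 10% FBS, at 10,000 cells/well, on 384-well plates carrying 70 pre-printed compounds at 1–10,000 nM in five tenfold steps, in duplicate. Viability came from CellTiter-Glo, normalised against DMSO and against 10 μM proteasome inhibitor. Any area under the curve given was derived from log-logistic curve fits in the drc and PharmacoGx R packages, and these fits had four parameters.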

[2] = tested on: myeloid leukemia patient primary cells Pat.10; experiment: area under dose-response curve (viability, 1 nM-10 uM) (fraction (0-1)); higher = more sensitive
Description: (§1)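 AUC (0–1, higher = more sensitive) of the 5-point dose–response (1 nM–10 µM, 72 h, CellTiter-Glo) in primary AML/CML patient mononuclear cells. 0.030103 is the floor for inactive compounds.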

[3] = tested on: myeloid leukemia patient primary cells Pat.1; experiment: as above
Description: as §1

[4] = tested on: myeloid leukemia patient primary cells Pat.13; experiment: as above
Description: as §1

[5] = tested on: myeloid leukemia patient primary cells Pat.15; experiment: as above
Description: as §1

[6] = tested on: myeloid leukemia patient primary cells Pat.5; experiment: as above
Description: as §1

[7] = tested on: myeloid leukemia patient primary cells Pat.2; experiment: as above
Description: as §1

[8] = tested on: myeloid leukemia patient primary cells Pat.12; experiment: as above
Description: as §1

[9] = tested on: myeloid leukemia patient primary cells Pat.8; experiment: as above
Description: as §1

[10] = tested on: myeloid leukemia patient primary cells Pat.4; experiment: as above
Description: as §1

[11] = tested on: myeloid leukemia patient primary cells Pat.7; experiment: as above
Description: as §1

[12] = tested on: myeloid leukemia patient primary cells Pat.11; experiment: as above
Description: as §1

[13] = tested on: myeloid leukemia patient primary cells Pat.6; experiment: as above
Description: as §1

[14] = tested on: myeloid leukemia patient primary cells Pat.3; experiment: as above
Description: as §1

[15] = tested on: myeloid leukemia patient primary cells Pat.9; experiment: as above
Description: as §1

[16] = tested on: myeloid leukemia patient primary cells Pat.14; experiment: as above
Description: as §1

MV4-11 = experiment: cell viability (% survival relative to DMSO control); higher = less cytotoxic
Description: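 8x8 drug-combination matrices (0–5000 nM; rosiglitazone and lestaurtinib 0–1000 nM) were run in MV4-11 cells for 72 h with CellTiter-Glo read-out. Survival is normalised to DMSO and 10 µM bortezomib and clipped at 100%.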

O=C1O/C(=C/Br)CCC1c1cccc2ccccc12 (stereo not given) [Bromoenol Lactone]
[1]
Settings	cell viability [%]
1 nM	89.5
10 nM	82.1
100 nM	62.3
1000 nM	1.83
10000 nM	< 0

Settings	area under dose-response curve
[2]	0.515
[3]	0.135
[4]	0.0877
[5]	0.132
[6]	0.828
[7]	0.0768
[8]	0.084
[9]	0.0529
[10]	0.213
[11]	0.287
[12]	0.0656
[13]	0.0918
[14]	0.447
[15]	0.651
[16]	0.324

Nc1nc(Cl)nc2c1ncn2[C@H]1C[C@H](O)[C@@H](CO)O1 [Cladribine]
[1]
Settings	cell viability [%]
1 nM	92.1
10 nM	69.8
100 nM	7.92
1000 nM	6.26
10000 nM	6.06

Settings	area under dose-response curve
[2]	0.768
[3]	< 0.0301
[4]	0.7
[5]	0.193
[6]	0.799
[7]	0.463
[8]	0.438
[9]	0.609
[10]	0.689
[11]	0.62
[13]	0.611
[14]	0.652
[15]	0.762
[16]	0.616

N#CC(C#N)=NNc1ccc(OC(F)(F)F)cc1 [FCCP]
[1]
Settings	cell viability [%]
1 nM	88.5
10 nM	82.9
100 nM	94.9
1000 nM	3.06
10000 nM	< 0

Settings	area under dose-response curve
[2]	0.466
[3]	0.214
[4]	0.211
[5]	0.159
[6]	0.825
[7]	0.0623
[8]	0.0898
[9]	0.116
[10]	0.229
[11]	0.366
[12]	0.158
[13]	0.175
[14]	0.361
[15]	0.361
[16]	0.316

O=C1c2cc([N+](=O)[O-])ccc2-n2c1nc1ccccc1c2=O [GNF-Pf-3777]
[1]
Settings	cell viability [%]
1 nM	93.1
10 nM	86.9
100 nM	72.7
1000 nM	46.2
10000 nM	20

Settings	area under dose-response curve
[2]	0.27
[4]	0.115
[5]	0.0672
[6]	0.292
[7]	0.0426
[8]	< 0.0301
[10]	0.14
[11]	0.0749
[13]	0.0546
[14]	0.265
[15]	0.158
[16]	0.071

CC(C)c1onc(-c2c(Cl)cccc2Cl)c1COc1ccc(/C=C/c2cccc(C(=O)O)c2)c(Cl)c1 [GW4064] + Cn1cc(-c2ccncc2)c(-c2ccc(OCc3ccc4ccccc4n3)cc2)n1 [PF-02545920]
cell viability [%], MV4-11
Settings	drug1 concentration 5 nM	drug1 concentration 10 nM	drug1 concentration 50 nM	drug1 concentration 100 nM	drug1 concentration 500 nM	drug1 concentration 1000 nM	drug1 concentration 5000 nM
drug2 concentration 5 nM	90.6	> 100	> 100	95.2	> 100	90.8	90.2
drug2 concentration 10 nM	> 100	> 100	91	99.5	94.5	> 100	95.5
drug2 concentration 50 nM	> 100	> 100	> 100	> 100	> 100	53.1	96.7
drug2 concentration 100 nM	97.4	> 100	> 100	96.7	> 100	> 100	89.1
drug2 concentration 500 nM	> 100	96.2	> 100	> 100	70.1	> 100	77.9
drug2 concentration 1000 nM	> 100	> 100	97.2	91.1	95.5	80.8	73.6
drug2 concentration 5000 nM	48.9	54	49.3	53.3	54.9	50.4	46.4

O=C(O)Cn1nnc(-c2cc(N3CCC(Oc4cc(F)ccc4Br)CC3)no2)n1 [MK-8245]
[1]
Settings	cell viability [%]
1 nM	> 100
10 nM	98.2
100 nM	78.1
1000 nM	62
10000 nM	57

Settings	area under dose-response curve
[2]	0.205
[3]	< 0.0301
[4]	< 0.0301
[5]	< 0.0301
[6]	0.0448
[7]	< 0.0301
[8]	< 0.0301
[9]	< 0.0301
[10]	< 0.0301
[11]	< 0.0301
[12]	< 0.0301
[13]	< 0.0301
[14]	0.0756
[15]	< 0.0301
[16]	< 0.0301

C=C(C=NNC(=N)N)NNC(=N)N [Mitoguazone]
[1]
Settings	cell viability [%]
1 nM	97.3
10 nM	82.2
100 nM	51.4
1000 nM	4.18
10000 nM	53

Settings	area under dose-response curve
[2]	0.574
[3]	< 0.0301
[4]	< 0.0301
[5]	0.161
[6]	0.715
[7]	< 0.0301
[8]	< 0.0301
[9]	< 0.0301
[10]	0.0342
[11]	0.528
[12]	< 0.0301
[13]	0.484
[14]	0.412
[15]	0.6
[16]	0.604

COc1cc(/C=C/C(=O)N2CCC=CC2=O)cc(OC)c1OC [Piperlongumine]
[1]
Settings	cell viability [%]
1 nM	60
10 nM	> 100
100 nM	84.6
1000 nM	51.3
10000 nM	3.72

Settings	area under dose-response curve
[2]	< 0.0301
[3]	0.143
[4]	0.149
[5]	0.191
[6]	0.585
[7]	0.125
[8]	0.162
[9]	0.144
[10]	0.21
[11]	0.0802
[12]	0.121
[13]	0.116
[14]	0.219
[15]	0.505
[16]	0.244

C=C(C)[C@H]1Cc2c(ccc3c2O[C@@H]2COc4cc(OC)c(OC)cc4[C@@H]2C3=O)O1 [Rotenone]
[1]
Settings	cell viability [%]
1 nM	48.6
10 nM	57.4
100 nM	35.7
1000 nM	25.3
10000 nM	18

Settings	area under dose-response curve
[2]	0.411
[3]	0.112
[4]	0.391
[5]	0.465
[6]	0.99
[8]	0.0808
[9]	0.322
[10]	0.187
[11]	0.329
[12]	< 0.0301
[13]	0.399
[14]	0.57
[15]	0.55
[16]	0.41

Oc1ccc(Nc2nc(-c3ccc(Cl)cc3)cs2)cc1 [SKI II]
[1]
Settings	cell viability [%]
1 nM	56.2
10 nM	92.1
100 nM	89.3
1000 nM	44.4
10000 nM	0.909

Settings	area under dose-response curve
[2]	0.291
[3]	0.054
[4]	0.0533
[5]	0.0495
[7]	0.0376
[8]	0.0339
[9]	0.054
[10]	0.0605
[11]	0.424
[12]	< 0.0301
[13]	0.0895
[14]	0.238
[15]	0.341
[16]	0.304

CC[C@@]1(O)C(=O)OCc2c1cc1n(c2=O)Cc2cc3c(CN(C)C)c(O)ccc3nc2-1 [Topotecan]
[1]
Settings	cell viability [%]
1 nM	90.9
10 nM	89.8
100 nM	20
1000 nM	18.6
10000 nM	2.85

Settings	area under dose-response curve
[2]	0.507
[3]	0.0609
[4]	0.0753
[5]	0.225
[6]	0.426
[7]	0.127
[8]	0.0406
[9]	0.0586
[10]	0.132
[11]	0.282
[12]	0.0826
[13]	0.147
[14]	0.54
[15]	0.245
[16]	0.231

CCC(=O)N1CCN(c2ccc(-n3c(=O)ccc4cnc5ccc(-c6cnc7ccccc7c6)cc5c43)cc2C(F)(F)F)CC1 [Torin1]
[1]
Settings	cell viability [%]
1 nM	96.1
10 nM	> 100
100 nM	93.2
1000 nM	66.8
10000 nM	62.1

Settings	area under dose-response curve
[2]	0.477
[3]	0.457
[4]	0.218
[5]	0.614
[6]	0.802
[8]	< 0.0301
[9]	0.0632
[10]	0.322
[11]	0.195
[12]	0.183
[15]	0.36
[16]	0.225
